1 compound from patent publication US20120302573A1, “METHODS OF INHIBITING PRO MATRIX METALLOPROTEINASE ACTIVATION” (priority 2011, published 2012) can be followed below.

Assay [1] concerns the target T1, MMP9 mediated gelatinase activity (Rattus norvegicus, UniProt P50282).
T1 construct: from tissue; host or cells: liver cryosections of female Lewis rats
Kind of assay: In situ zymography of gelatinase activity in livers of SCW-induced rats dosed with compound. Format: in vivo. The settings on record: for Liver gelatinase Intensity, Mean / Liver gelatinase Intensity, individual rats: Day 25-28. An excerpt:
In situ zymography provides an alternative approach to assess active MMP9 in tissues (J Histochem Cytochem; 2004; 52:711-722). Tissue sections are overlain with fluorescein-conjugated gelatin wherein the conjugation is sufficiently dense to cause the fluorescein to be dye-quenched (DQ). Proteolytic degradation of the DQ-gelatin releases the fluorescein from the quenching effect giving rise to bright green fluorescence at the site of degradation. Because in situ zymography requires the use of frozen sections, calcified tissues are problematic. However, an additional feature of the SCW arthritis model is the development of hepatic granulomatous disease (J Immunol; 1986; 137:2199-2209), and MMP9 reportedly plays a role in macrophage recruitment in the granulomas response to mycobacteria (Infect Immun; 2006; 74:6135-6144). Consequently, granulomatous livers from SCW-treated rats were assessed for active MMP9 by in situ zymography.
As described above, Female Lewis (LEW/N) rats, 5-6 weeks of age (80-100 g) were injected (i.p.) with saline or SCW PG-PS. On day 28, when the granulomatous response was well established, animals were sacrificed and livers were frozen in OCT cryo-sectioning medium and 10 μm sections were cut on a Cryome HM 500 M cryotome and mounted on glass microscope slides. Sections were air dried briefly. MMP9 was confirmed as the source of the gelatinase activity in the liver by treating liver sections with monoclonal antibodies directed against the active site of the two major gelatinases MMP9 and MMP2. Liver sections overlain with 50 μL of 100 μg/mL neutralizing mouse monoclonal antibodies directed against MMP9 (Calbiochem, clone 6-6B), or MMP2 (Millipore, clone CA-4001), or with PBS for 1 hr at room temperature. Tissues were rinsed once with PBS, blotted, and briefly air dried and then overlain with DQ-gelatin (Invitrogen) dissolved to 1 mg/mL in deionized water and then diluted 1:10 in 1% wt/vol low gelling point agarose type VII (Sigma) in PBS. The sections were covered with coverslips, incubated in the dark at room temperature for 20 min, and imaged on an Olympus IX80 inverted microscope fitted with fluorescence optics, using SlideBook™ imaging software (Intelligent Imaging Innovations, Inc., Philadelphia, Pa.; version 5.0). Fluorescence intensity was determined (Table 9). When compared to a saline-treated rat, gelatinase activity was abundantly expressed in granulomatous liver sections obtained from a rat with SCW arthritis.
Next, liver in situ zymography was used to assess the relative presence of active MMP9 in rats dosed with vehicle vs. Compound α. Female Lewis (LEW/N) rats, 5-6 weeks of age (80-100 g) were injected (i.p.) with saline or SCW PG-PS. Commencing on day 25, randomized groups of rats (n=3 rats/group) received vehicle or 20 or 50 mg/kg Compound α BID by oral gavage. Vehicle consisted of an aqueous mixture containing 2% (v:v) N-methylpyrrolidone, 5% (v:v) glycerine, and 20% (w:v) captisol. Treatment continued daily through the morning of day 28.
Four hrs after the AM dose on day 28, rats were sacrificed and livers assessed for active MMP9 by in situ zymography (Table 10). Gelatinase activity was increased markedly in SCW-induced rats, but activity was reduced by approximately 80% in animals treated with 50 mg/kg Compound α.

Another assay concerns the target T2, MMP9 (Rattus norvegicus, UniProt P50282).
T2 construct: Pro and active MMP9 were abundantly present in ankles of SCW-induced vehicle-treated rats; from tissue; host or cells: tibia-tarsus joints (ankles) of female Lewis rats
Kind of assay: Western blot of MMP9 forms in ankles of rats with SCW-induced arthritis. The following applies: day 26, mAb-L51/82. Format: in vivo. The method, then:
Hind-limbs were skinned, severed just above the tibia-tarsus joint and below the metatarsals, and the tibia-tarsus joints (ankles) were weighed, snap frozen and pulverized on dry ice using a hammer and anvil. The pulverized tissue was suspended in 3 volumes (w:v) of ice-cold homogenization buffer containing 50 mM Tris pH 7.5, 150 mM NaCl, 5 mM EDTA, 1% Triton×100, 0.05% Brij 30, 10% dimethylsulfoxide and Complete EDTA-free Protease Inhibitor Cocktail (Roche Diagnostics). The suspended tissue was homogenized sequentially with a Kinematica AG Polytron and a Dounce homogenizer. Homogenates were centrifuged at 16,000×g for 10 min at 4° C. and the soluble fractions were saved. Dimethylsulfoxide was removed from a portion of each soluble fraction using PD MiniTrap™ G-25 desalting columns (GE Healthcare). Homogenates (0.25 mL), free of DMSO, were diluted with an equal volume of binding buffer (i.e., homogenization buffer without dimethylsufoxide) and adjusted to contain 50 μL of a 50% slurry of gelatin-conjugated sepharose. Following 2 hours of rotation at 4° C. the beads were washed twice in binding buffer and eluted in 100 μL 2×-reducing Laemmli buffer with heating to 95° C. for 5 minutes. […]

Molecules are shown by their SMILES. Several values for one entry are separate records, joined by “and”; a condition that tells them apart may be missing. Equal values may be shown once.

T1 sequence (P50282 108-708): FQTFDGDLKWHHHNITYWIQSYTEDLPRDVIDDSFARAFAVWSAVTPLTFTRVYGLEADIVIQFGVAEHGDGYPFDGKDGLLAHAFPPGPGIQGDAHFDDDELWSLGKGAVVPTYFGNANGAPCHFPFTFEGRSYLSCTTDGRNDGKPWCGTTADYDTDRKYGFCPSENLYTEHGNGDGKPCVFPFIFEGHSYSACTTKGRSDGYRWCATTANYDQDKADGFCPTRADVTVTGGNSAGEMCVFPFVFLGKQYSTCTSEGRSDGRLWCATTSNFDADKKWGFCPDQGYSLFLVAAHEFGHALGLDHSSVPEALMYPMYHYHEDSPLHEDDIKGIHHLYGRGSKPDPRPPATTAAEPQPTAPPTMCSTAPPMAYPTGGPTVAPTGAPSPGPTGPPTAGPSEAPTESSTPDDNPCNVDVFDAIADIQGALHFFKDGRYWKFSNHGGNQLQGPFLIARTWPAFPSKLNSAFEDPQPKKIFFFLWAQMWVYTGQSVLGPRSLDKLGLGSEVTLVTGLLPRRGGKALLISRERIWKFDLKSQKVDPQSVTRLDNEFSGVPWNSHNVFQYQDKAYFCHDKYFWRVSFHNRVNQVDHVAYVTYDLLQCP
T2 sequence (P50282 108-708): as above

For `Cc1nc(C)c(-c2csc(Nc3cc(S(N)(=O)=O)ccc3OC(C)C)n2)s1` [Compound α, 3-(2′,4′-Dimethyl-[4,5′]bithiazolyl-2-ylamino)-4-isopropoxy-benzenesulfonamide.HBr], in assay [1] (20 mg/kg BID oral), the “Liver gelatinase Intensity, Mean” value was found to be 55.2 RLU × 10^6; the “Liver gelatinase Intensity, individual rats” value was 43.0 RLU × 10^6 and 69.0 RLU × 10^6 and 53.7 RLU × 10^6. Besides, in assay [1] (50 mg/kg BID oral), the “Liver gelatinase Intensity, Mean” value is on record as 11.1 RLU × 10^6; the “Liver gelatinase Intensity, individual rats” value was 3.2 RLU × 10^6 and 25.6 RLU × 10^6 and 4.5 RLU × 10^6. For the same compound, the “reduction of liver gelatinase activity” value in assay [1] (50 mg/kg BID oral, day 28) is “approximately 80%”. In addition, the “abundance of proMMP9 in ankles” value at MMP9 was “did not reduce”.
